Reference: ChEMBL document CHEMBL4680105, “Discovery of Benzenesulfonamide Derivatives as Carbonic Anhydrase Inhibitors with Effective Anticonvulsant Action: Design, Synthesis, and Pharmacological Evaluation” (J Med Chem, 2018)

Key:
Carbonic anhydrase 9 = Carbonic anhydrase 9 (Homo sapiens, UniProt Q16790); experiment: Inhibition of recombinant human carbonic anhydrase 9 by stopped-flow CO2 hydration assay
Mus musculus [1] = experiment: (§1) Anticonvulsant activity in Swiss Albino mouse model of maximal electroshock-induced seizure assessed as protection against seizure by measuring suppression of hind limb extension at 30 mg/kg, ip pretreated for 30 mins before seizure stimulation and measured after 0.5 hrs by MES test relative to control; format: functional; settings: time 60 min, 1 h
Mus musculus [2] = experiment: as §1, with “at 100” for “at 30”; format: functional; settings: time 60 min, 1 h
Mus musculus [3] = experiment: as §1, with “3” for “0.5”; format: functional; settings: time 3.5 hrs
Mus musculus [4] = experiment: as §1, with “at 100” for “at 30”, “after 3” for “after 0.5”; format: functional; settings: 0.5 h
Mus musculus [5] = experiment: Anticonvulsant activity in Swiss Albino mouse assessed as protection against seizure at 30 mg/kg, ip measured after 0.5 hrs by sc-PTZ seizure test relative to control; format: functional
Mus musculus [6] = experiment: Anticonvulsant activity in Swiss Albino mouse assessed as protection against seizure at 30 mg/kg, ip measured after 3 hrs by sc-PTZ seizure test relative to control; format: functional
Mus musculus [7] = experiment: Anticonvulsant activity in Swiss Albino mouse assessed as protection against seizure at 100 mg/kg, ip measured after 0.5 hrs by sc-PTZ seizure test relative to control; format: functional
Mus musculus [8] = experiment: Anticonvulsant activity in Swiss Albino mouse assessed as protection against seizure at 100 mg/kg, ip measured after 3 hrs by sc-PTZ seizure test relative to control; format: functional
Mus musculus [9] = experiment: as §1, with “po” for “ip”, “0.25” for “0.5”; format: functional; settings: 0.5 h
Mus musculus [10] = experiment: as §1, with “po” for “ip”; format: functional; settings: time 60 min, 1 h
Mus musculus [11] = experiment: as §1, with “po” for “ip”, “1” for “0.5”; format: functional; settings: time 1.5 hrs
Mus musculus [12] = experiment: as §1, with “po” for “ip”, “2” for “0.5”; format: functional; settings: time 2.5 hrs
Mus musculus [13] = experiment: as §1, with “po” for “ip”, “4” for “0.5”; format: functional; settings: time 4.5 hrs
Mus musculus [14] = experiment: as §1, with “1” for “0.5”; format: functional; settings: time 1.5 hrs
Mus musculus [15] = experiment: as §1, with “2” for “0.5”; format: functional; settings: time 2.5 hrs
Mus musculus [16] = experiment: as §1, with “4” for “0.5”; format: functional; settings: time 4.5 hrs
Mus musculus [17] = experiment: as §1, with “6” for “0.5”; format: functional; settings: time 6.5 hrs
[18] = Neurotoxicity in Swiss Albino mouse by rotarod test at 30 mg/kg. ip measured up to 120 mins by rotarod test; format: toxicity, organism-based; settings: in vivo, 2 h
[19] = Sub-acute toxicity in Wistar rat at 100 mg/kg, po for 14 days; format: organism-based; settings: in vivo, 336 h, time 14 day
[20] = Sub-acute toxicity in Wistar rat assessed as mortality level at 100 mg/kg, po for 14 days; format: organism-based; settings: in vivo, 336 h, time 14 day
[21] = Hematological toxicity in Wistar rat assessed as Hb level at 100 mg/kg, po for 14 days (reference value: 12.7 +/- 1.5 g/dL); format: organism-based; settings: in vivo, 336 h, time 14 day
[22] = Hematological toxicity in Wistar rat assessed as TLC level at 100 mg/kg, po for 14 days (reference value: 6.3 +/- 1.4 10^3/ml); format: organism-based; settings: in vivo, 336 h, time 14 day
[23] = Hematological toxicity in Wistar rat assessed as neutrophils level at 100 mg/kg, po for 14 days (reference value: 20.8 +/- 5.8%); format: organism-based; settings: in vivo, 336 h, time 14 day
[24] = Hematological toxicity in Wistar rat assessed as lymphocytes level at 100 mg/kg, po for 14 days (reference value: 74.6 +/- 4.3%); format: organism-based; settings: in vivo, 336 h, time 14 day
[25] = Hematological toxicity in Wistar rat assessed as eosinophils level at 100 mg/kg, po for 14 days (reference value: 2.3 +/- 1.2%); format: organism-based; settings: in vivo, 336 h, time 14 day
[26] = Hematological toxicity in Wistar rat assessed as monocytes level at 100 mg/kg, po for 14 days (reference value: 2.5 +/- 1.5%); format: organism-based; settings: in vivo, 336 h, time 14 day
[27] = Hematological toxicity in Wistar rat assessed as basophils level at 100 mg/kg, po for 14 days (reference value: 0.3 +/- 0.5%); format: organism-based; settings: in vivo, 336 h, time 14 day
[28] = Hematological toxicity in Wistar rat assessed as RBC level at 100 mg/kg, po for 14 days (reference value: 7.9 +/- 0.94 10^6/mm3); format: organism-based; settings: in vivo, 336 h, time 14 day
[29] = Hematological toxicity in Wistar rat assessed as platelet count level at 100 mg/kg, po for 14 days (reference value: 698 +/- 156 10^3/mm3); format: organism-based; settings: in vivo, 336 h, time 14 day
[30] = Hepatotoxicity in Wistar rat assessed as SGOT level at 100 mg/kg, po for 14 days (reference value: 59.9 +/- 11 U/L) by liver function test; format: toxicity, organism-based; settings: in vivo, 336 h, time 14 day
[31] = Hepatotoxicity in Wistar rat assessed as SGPT level at 100 mg/kg, po for 14 days (reference value: 59.2 +/- 12.5 U/L) by liver function test; format: toxicity, organism-based; settings: in vivo, 336 h, time 14 day
[32] = Hepatotoxicity in Wistar rat assessed as alkaline phosphatase level at 100 mg/kg, po for 14 days (reference value: 114.2 +/- 8.4 U/L) by liver function test; format: toxicity, organism-based; settings: in vivo, 336 h, time 14 day
[33] = Hepatotoxicity in Wistar rat assessed as total bilirubin level at 100 mg/kg, po for 14 days (reference value: 0.32 +/- 0.09 mg/dL) by liver function test; format: toxicity, organism-based; settings: in vivo, 336 h, time 14 day
[34] = Hepatotoxicity in Wistar rat assessed as total protein level at 100 mg/kg, po for 14 days (reference value: 6.35 +/- 0.46 g/dL) by liver function test; format: toxicity, organism-based; settings: in vivo, 336 h, time 14 day
[35] = Renal toxicity in Wistar rat assessed as blood urea level at 100 mg/kg, po for 14 days (Rvb =34.7 +/- 9.9 mg/dL) by kidney function test; format: organism-based; settings: in vivo, 336 h, time 14 day
[36] = Renal toxicity in Wistar rat assessed as creatinine level at 100 mg/kg, po for 14 days (reference value: 0.75 +/- 0.1 mg/dL) by kidney function test; format: organism-based; settings: in vivo, 336 h, time 14 day
[37] = Renal toxicity in Wistar rat assessed as uric acid level at 100 mg/kg, po for 14 days (reference value: 4.33 +/- 2.5 mg/dL) by kidney function test; format: organism-based; settings: in vivo, 336 h, time 14 day
[38] = Renal toxicity in Wistar rat assessed as calcium level at 100 mg/kg, po for 14 days (reference value: 10.3 +/- 1.8 mg/dL) by kidney function test; format: organism-based; settings: in vivo, 336 h, time 14 day
[39] = Renal toxicity in Wistar rat assessed as phosphorus level at 100 mg/kg, po for 14 days (reference value: 9.4 +/- 2.0 mg/dL) by kidney function test; format: organism-based; settings: in vivo, 336 h, time 14 day
[40] = Renal toxicity in Wistar rat assessed as Na+ level at 100 mg/kg, po for 14 days (reference value: 144 +/- 2.8 mequiv/L) by kidney function test; format: organism-based; settings: in vivo, 336 h, time 14 day
[41] = Renal toxicity in Wistar rat assessed as K+ level at 100 mg/kg, po for 14 days (reference value: 4.82 +/- 0.3 mequiv/L) by kidney function test; format: organism-based; settings: in vivo, 336 h, time 14 day
[42] = Renal toxicity in Wistar rat assessed as Cl- level at 100 mg/kg, po for 14 days (reference value: 105.5 +/- 6.5 mequiv/L) by kidney function test; format: organism-based; settings: in vivo, 336 h, time 14 day

## NS(=O)(=O)c1ccc(CNC(=O)CCN2CCN(Cc3ccccc3)CC2)cc1
Carbonic anhydrase 9
  Ki: 116 nM

## COc1ccc(N2CCN(CC(=O)NCc3ccc(S(N)(=O)=O)cc3)CC2)cc1
Carbonic anhydrase 9
  Ki: 1100 nM

## NS(=O)(=O)c1ccc(CNC(=O)CCN2CCN(Cc3ccc4c(c3)OCO4)CC2)cc1
Carbonic anhydrase 9
  Ki: 104 nM
Mus musculus [1]
  Activity: 67%
Mus musculus [2]
  Activity: 83%
Mus musculus [3]
  Activity: 67%
Mus musculus [4]
  Activity: 67%
Mus musculus [5]
  Activity: 83%
Mus musculus [6]
  Activity: 67%
Mus musculus [7]
  Activity: 50%
Mus musculus [8]
  Activity: 50%
Mus musculus [9]
  Activity: 17%
Mus musculus [10]
  Activity: 50%
Mus musculus [11]
  Activity: 67%
Mus musculus [12]
  Activity: 67%
Mus musculus [13]
  Activity: 50%
Mus musculus [14]
  Activity: 80%
Mus musculus [15]
  Activity: 60%
Mus musculus [16]
  Activity: 70%
Mus musculus [17]
  Activity: 50%
[18]
  Activity: Non-Toxic
[19]
  Activity: Non-Toxic
[20]
  Activity: Non-Toxic
[21]
  Activity: 12.6 g/dL
[22]
  Activity: 7.5 10^3/ml
[23]
  Activity: 22.3%
[24]
  Activity: 74%
[25]
  Activity: 2.3%
[26]
  Activity: 2.3%
[27]
  Activity: 0.16%
[28]
  Activity: 7.7 10^6/mm3
[29]
  Activity: 662.3 10^3/mm3
[30]
  Activity: 64.2 U/L
[31]
  Activity: 52.9 U/L
[32]
  Activity: 113.4 U/L
[33]
  Activity: 0.38 mg/dL
[34]
  Activity: 6.2 g/dL
[35]
  Activity: 39.8 mg/dL
[36]
  Activity: 0.75 mg/dL
[37]
  Activity: 2.73 mg/dL
[38]
  Activity: 9.9 mg/dL
[39]
  Activity: 6.8 mg/dL
[40]
  Activity: 144 mEq/L
[41]
  Activity: 4.9 mEq/L
[42]
  Activity: 104.3 mEq/L

## NS(=O)(=O)c1ccc(CNC(=O)CCN2CCN(c3ccc(F)cc3)CC2)cc1
Carbonic anhydrase 9
  Ki: 115 nM

## NS(=O)(=O)c1ccc(CNC(=O)CN2CCN(C(=O)OCc3ccccc3)CC2)cc1
Carbonic anhydrase 9
  Ki: 1630 nM
Mus musculus [1]
  Activity: 17%
Mus musculus [2]
  Activity: 67%
Mus musculus [3]
  Activity: 67%
Mus musculus [4]
  Activity: 50%
Mus musculus [5]
  Activity: 67%
Mus musculus [6]
  Activity: 17%
Mus musculus [7]
  Activity: 50%
Mus musculus [8]
  Activity: 33%

## NS(=O)(=O)c1ccc(CNC(=O)CN2CCN(c3ccc(F)cc3)CC2)cc1
Carbonic anhydrase 9
  Ki: 228 nM

## Cc1ccc(N2CCN(CC(=O)NCc3ccc(S(N)(=O)=O)cc3)CC2)cc1
Carbonic anhydrase 9
  Ki: 1530 nM

## NS(=O)(=O)c1ccc(CNC(=O)CCN2CCN(c3ncccn3)CC2)cc1
Carbonic anhydrase 9
  Ki: 455 nM

## NS(=O)(=O)c1ccc(CNC(=O)CCN2CCN(C(c3ccccc3)c3ccccc3)CC2)cc1
Carbonic anhydrase 9
  Ki: 890 nM

## NS(=O)(=O)c1ccc(CNC(=O)CCN2CCN(c3ccccc3)CC2)cc1
Carbonic anhydrase 9
  Ki: 23.7 nM

## NS(=O)(=O)c1ccc(CNC(=O)CCN2CCN(c3ccc(C(F)(F)F)cc3)CC2)cc1
Carbonic anhydrase 9
  Ki: 137 nM

## NS(=O)(=O)c1ccc(CNC(=O)CN2CCN(C(c3ccc(F)cc3)c3ccc(F)cc3)CC2)cc1
Carbonic anhydrase 9
  Ki: 2440 nM

## NS(=O)(=O)c1ccc(CNC(=O)CN2CCN(c3ccccn3)CC2)cc1
Carbonic anhydrase 9
  Ki: 1560 nM

## NS(=O)(=O)c1ccc(CNC(=O)CCN2CCN(c3ccc(Cl)cc3)CC2)cc1
Carbonic anhydrase 9
  Ki: 117 nM

## NS(=O)(=O)c1ccc(CNC(=O)CCN2CCN(C(c3ccc(F)cc3)c3ccc(F)cc3)CC2)cc1
Carbonic anhydrase 9
  Ki: 98 nM

## NS(=O)(=O)c1ccc(CNC(=O)CCN2CCN(c3ccccn3)CC2)cc1
Carbonic anhydrase 9
  Ki: 162 nM

## NS(=O)(=O)c1ccc(CNC(=O)CN2CCN(c3ccc(Cl)cc3)CC2)cc1
Carbonic anhydrase 9
  Ki: 1200 nM

## Cc1ccc(N2CCN(CCC(=O)NCc3ccc(S(N)(=O)=O)cc3)CC2)cc1
Carbonic anhydrase 9
  Ki: 78.9 nM

## NS(=O)(=O)c1ccc(CNC(=O)CN2CCN(Cc3ccccc3)CC2)cc1
Carbonic anhydrase 9
  Ki: 220 nM

## NS(=O)(=O)c1ccc(CNC(=O)CN2CCN(c3ncccn3)CC2)cc1
Carbonic anhydrase 9
  Ki: 2230 nM
Mus musculus [1]
  Activity: 50%
Mus musculus [2]
  Activity: 50%
Mus musculus [3]
  Activity: 67%
Mus musculus [4]
  Activity: 83%
Mus musculus [5]
  Activity: 33%
Mus musculus [6]
  Activity: 50%
Mus musculus [7]
  Activity: 50%
Mus musculus [8]
  Activity: 50%

## COc1ccc(N2CCN(CCC(=O)NCc3ccc(S(N)(=O)=O)cc3)CC2)cc1
Carbonic anhydrase 9
  Ki: 136 nM

## NS(=O)(=O)c1ccc(CNC(=O)CCN2CCN(C(=O)OCc3ccccc3)CC2)cc1
Carbonic anhydrase 9
  Ki: 257 nM

## NS(=O)(=O)c1ccc(CNC(=O)CN2CCN(C(c3ccccc3)c3ccccc3)CC2)cc1
Carbonic anhydrase 9
  Ki: 1680 nM

## NS(=O)(=O)c1ccc(CNC(=O)CN2CCN(c3ccccc3)CC2)cc1
Carbonic anhydrase 9
  Ki: 396 nM

## NS(=O)(=O)c1ccc(CNC(=O)CN2CCN(Cc3ccc4c(c3)OCO4)CC2)cc1
Carbonic anhydrase 9
  Ki: 1600 nM

## NS(=O)(=O)c1ccc(CNC(=O)CN2CCN(c3ccc(C(F)(F)F)cc3)CC2)cc1
Carbonic anhydrase 9
  Ki: 1770 nM
